Results: PMC6631010, “Development of a Simple Assay Method for Adenosine Deaminase via Enzymatic Formation of an Inosine-Tb^3+ Complex” (Sensors (Basel, Switzerland), 2019)

Target: T1, Adenosine deaminase (ADA) (Bos taurus, UniProt P56658)
T1 sequence (P56658 2-363): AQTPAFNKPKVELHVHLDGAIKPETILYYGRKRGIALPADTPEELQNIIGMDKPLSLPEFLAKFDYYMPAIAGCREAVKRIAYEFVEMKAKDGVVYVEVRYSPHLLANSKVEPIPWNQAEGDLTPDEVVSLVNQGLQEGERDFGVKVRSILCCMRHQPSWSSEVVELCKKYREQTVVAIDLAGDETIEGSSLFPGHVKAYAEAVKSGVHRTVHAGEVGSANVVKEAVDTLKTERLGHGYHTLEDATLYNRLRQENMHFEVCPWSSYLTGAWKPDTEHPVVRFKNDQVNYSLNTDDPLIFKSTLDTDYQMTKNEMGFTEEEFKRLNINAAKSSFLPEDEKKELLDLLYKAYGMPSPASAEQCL
Assay: biochemical

Question: For `CCCCCC[C@@H]([C@@H](C)O)n1cnc2c(N)ncnc21` (racemic) [EHNA, erythro-9-(2-hydroxy-3-nonyl)adenine], which IC50 is on record?
Answer: The IC50 was 64 nM.
